For series [1], the system named is tumor cell lines (K562, Raji, Jurkatt, CEM, MCF-7, MDA-MB-231, MD-MB-468, LNCaP, PC-3, HT-29, HCT-116, PANC-1, GL10-1). The experiment in a line: Tumor cell proliferation, oxygen biosensor. Conditions: DMSO, ethanol and PBS solutions, at least 24 hour incubation, FIGS. 6-8. It counts as cell-based. An excerpt: Referring to FIGS. 6, 7, and 8 the effect of snake extract on tumor cell proliferation utilizing the DMSO, ethanol, and PBS solutions, is respectively analyzed. The methodology used to analyze tumor cell proliferation was oxygen biosensor. With this methodology culture plates are coated with an oxygen sensitive fluorescent compound embedded in a gas-permeable and hydrophobic matrix permanently attached to the bottom of a multi-well plate. The amount of fluorescence correlates directly to the rate of oxygen consumption in the well, providing a signal that can be directly correlated to cell growth.
In the experiments in FIGS. 1-8, the experiments were done with an effective amount of each analyzed target cancer cell lines dissolved within each snake extract solution measured as noted in each Figure for at least a 24 hour incubation period.
The following cell lines were utilized in the tests listed above: • Leukemia/Lymphoma: K562, Raji, Jurkatt, CEM; • Breast Carcinoma MCF-7, MDA-MB-231, MD-MB-468; • Prostate Carcinoma LNCaP, PC-3; • Colorectal Carcinoma: HT-29, HCT-116; • Pancreatic Carcinoma: PANC-1; • Gliobastaoma: GL10-1.

Another series concerns Artemia salina. Description: Brine shrimp lethality assay. It counts as in vivo. Conditions: 24 h, nauplii. The procedure: The eggs of brine shrimp, Airtime salina (Leach), are used in monitoring bioactive compounds. The eggs are readily available in pet shops at low cost and remain viable for years in the dry state. The brine shrimp assay has advantages of being rapid (24 hrs), inexpensive, and simple. No aseptic techniques are required. It easily utilizes a large number of organisms for statistical validation and requires no special equipment and a relatively small amount of sample.
The assay was carried out with Artemia salina eggs. 50 mg of Artemia salina eggs in a beaker containing sea salt (6 g), yeast (0.9 mg) and distilled water (150 ml) were incubated at 27-28° C. for 24 hrs. The newly hatched nauplii were concentrated. From this volume, aliquots of 50 μl (approximately 18-20 nauplii) were pipette directly into a 24 well plates containing sea water (sw), −ve control (DMSO+sw), +ve control (emetine) or different concentrations of extracts (62.5-500 μg/ml). Assay was carried out in triplicate. The plates were sealed and incubated at 27-28° C. for 24 h. At the end of the 24-h incubation period, the content of each well was pipette into a watch glass individually. Survival was assessed by scoring the number of dead nauplii using a microscope. Once counts of dead nauplii had been taken, 0.5 ml of methanol was added to kill all remaining nauplii. The contents of each well were then recorded and result tabulated as (X/Y; where X=number dead and Y=number of dead and alive).

The subject of another series is MDA-MB-435 tumor masses. The following applies: cited from earlier work.
For another series, the system named is breast cancer cells. Conditions: cited from earlier work.
The test system of a further series is angiogenesis. Conditions: elicited by basic fibroblast growth factor; cited from earlier work.
A further series deals with B16F10 solid tumor. Conditions: cited from earlier work.

For `CC[C@@]1(O)C(=O)OCc2c1cc1n(c2=O)Cc2cc3ccccc3nc2-1` [Camptothecin], the inhibiting cell proliferation entry in series [1] was “more effective at inhibiting cell proliferation of different cell lines than the snake powder extract”.

As to `CC[C@H]1CN2CCc3cc(OC)c(OC)cc3[C@@H]2C[C@@H]1C[C@H]1NCCc2cc(OC)c(OC)cc21` [Emetine], the “% mortality” value in the series on Artemia salina (concentration 62.5 (extracts 62.5-500 μg/ml)) is reported as 58.2%; in the series with Artemia salina (concentration 125 (extracts 62.5-500 μg/ml)) it was 100%; in the series with Artemia salina (concentration 250 (extracts 62.5-500 μg/ml)), 100%; in the series on Artemia salina (concentration 500 (extracts 62.5-500 μg/ml)), 100%.

For Contortrostatin, the “angiogenesis induced by breast cancer” value in the series on MDA-MB-435 tumor masses (immunohistochemical quantitation of vascular endothelial cells in tumor tissue) is “inhibiting angiogenesis”. Moreover, the “inhibited growth of tumor” value in the series on MDA-MB-435 tumor masses (injected daily at 5 microgram per mouse) is recorded as 74%. Also, in the series with breast cancer cells, the “cytotoxicity to cancer cells” value is “not cytotoxic” and the “proliferation of the breast cancer cells in vitro” value was “does not inhibit proliferation”.

For Rhodostomin, in the series with angiogenesis, the angiogenesis result is recorded as “inhibit angiogenesis”. In addition, the survival result in the series with B16F10 solid tumor (C57BL/6 mice) was “prolonged survival”. Besides, the tumor growth result in the series on B16F10 solid tumor (subcutaneously inoculated B16F10 solid tumor) is “suppressed tumor growth”.

The values are drawn from patent US20130171263A1, “Snake Powder Extract For Treatment Of Cancer” (priority 2006, published 2013).
